Like-named read-outs stand apart in the source and are kept apart here.
Assays:
[1] = tested on: human large cell lung carcinoma H460 xenograft; conditions: combination with arsenic trioxide (ATO); background; cited from earlier work
[2] = tested on: cisplatin-resistant NTUB 1/P human bladder carcinoma xenografts; conditions: combination with arsenic trioxide (ATO); background; cited from earlier work
[3] = tested on: human lymphoblastic leukemia (CCRF-CEM); assay: In vitro cytotoxicity, XTT assay, CCRF-CEM; format: cell-based
Description: (§1) Human colon carcinoma HCT-116 cells and human prostate adenocarcinoma PC-3 cells were obtained from American Type Culture Collection (ATCC, Rockville, Md.). Human mammary carcinoma (MX-1) tumor cells were obtained from MSKCC cell bank. The CCRF-CEM human lymphoblastic leukemia cells and their vinblastine resistant subline (CCRF-CEM/VBL, 680-fold resistance in vitro) were obtained from Dr. William Beck of the University of Illinois, Chicago, and CCRF-CEM/Taxol (330-fold resistance in vitro). Resistant cells CCRF-CEM/taxol were produced by exposing the parent cells to increasing sublethal concentration (IC50-IC90) of paclitaxel for six months.
(§2) In preparation for in vitro cytotoxicity assays, cells were cultured at an initial density 2−5×10^4 cells per milliliter. They were maintained in a 5% CO2-humidified atmosphere at 37° C. in RPMI medium 1640 (GIBCO/BRL) containing penicillin (100 units/mL), streptomycin (100 μg/mL, GIBCO/BRL), and 5% heat-inactivated FBS. For cells grown in suspension (such as CCRF-CEM and its sublines), cytotoxicity was measured, by using XTT microculture method^23 in 96-well microtiter plates.
(§3) The cytotoxic effects of the newly synthesized compounds were determined in T-cell acute lymphocytic leukemia (CCRF-CEM) and their resistant subcell lines (CCRF-CEM/Taxol and CCRF-CEM/VBL) by the XTT assay^24 and human solid tumor cells (i.e. breast carcinoma MX-1 and colon carcinoma HCT-116) by the SRB assay^25 in a 72 h incubation using a microplate spectrophotometer as described previously.^25 After the addition of phenazine methosulfate-XTT solution, incubated at 37° C. for 6 h and absorbance at 450 and 630 nm was detected on a microplate reader (EL 340). The cytotoxicity of the newly synthesized compounds against non-small cell lung carcinoma H1299, prostate cancer PC3, oral cancer OECM-1 and glioma U87 were determined by the Alamar blue assay^26 in a 72 h incubation using a microplate spectrophotometer as described previously. After the addition of alamar blue solution, it was incubated at 37° C. for 6 h. Absorbance at 570 and 600 nm was detected on a microplate reader. IC50 values were determined from dose-effect relationship at six or seven concentrations of each drug using the CompuSyn software by Chou and Martin^27 based on the median-effect principle and plot.^28,29 Ranges given for Cisplatin were mean±SE (n=4).

CCRF-CEM/Taxol = assay: In vitro cytotoxicity, XTT assay, CCRF-CEM/Taxol; format: cell-based, human; conditions: Table 5; for IC50: Taxol-resistant subline, XTT, 72 h, read-out: Cell Growth inhibition (IC50 μM) CCRF-CEM/Taxol; for fold of cross-resistant vs IC50 of the parent cell line, CCRF-CEM/Taxol: number in brackets
Description: as §1, §2, §3

CCRF-CEM/VBL = assay: In vitro cytotoxicity, XTT assay, CCRF-CEM/VBL; format: cell-based, human; conditions: Table 5; for IC50: vinblastine-resistant subline, XTT, 72 h, read-out: Cell Growth inhibition (IC50 μM) CCRF-CEM/VBL; for fold of cross-resistant vs IC50 of the parent cell line, CCRF-CEM/VBL: number in brackets
Description: as §1, §2, §3

breast carcinoma MX-1 = assay: In vitro cytotoxicity, SRB assay, MX-1; format: cell-based, human; conditions: Table 6, 72 h
Description: as §1, §2, §3

colon carcinoma HCT-116 = assay: In vitro cytotoxicity, SRB assay, HCT-116; format: cell-based, human
Description: as §1, §2, §3

[4] = tested on: non-small cell lung carcinoma H1299; assay: In vitro cytotoxicity, Alamar blue assay, H1299; format: cell-based, human
Procedure: (§4) Prostate cancer PC3, non-small cell lung carcinoma cells H1299, and human glioma cells U87 were purchased from the American Type Culture Collection (Rockville, Md.). OECM-1 (human gingival squamous cell carcinoma cells) was obtained from Dr C.-L. Meng (National Defense Medical College, Taiwan).^22
as §2, §3

prostate cancer PC3 = assay: In vitro cytotoxicity, Alamar blue assay, PC3; format: cell-based, human
Procedure: as §4, §2, §3

oral cancer OECM-1 = assay: In vitro cytotoxicity, Alamar blue assay, OECM-1; format: cell-based, human
Procedure: as §4, §2, §3

glioma U87 = assay: In vitro cytotoxicity, Alamar blue assay, U87; format: cell-based, human
Procedure: as §4, §2, §3

linearized pBR322DNA = assay: DNA cross-linking, alkaline agarose gel shift assay; format: biochemical; conditions: 1, 10, and 20 μM; FIG. 8
Procedure: Formation of DNA cross-linking was analyzed by alkaline agarose gel electrophoresis assay. […] The reaction mixture was incubated at 37° C. for 2 h. At the end of reaction, the plasmid DNA was linearized by digestion with BamHI and followed by precipitation with ethanol. The DNA pellets were dissolved and denatured in alkaline buffer (0.5 N NaOH-10 mM EDTA). An aliquot of 20 μL of DNA solution (1000 ng) was mixed with 4 μL of 6× alkaline loading dye and then electrophoretically resolved on a 0.8% alkaline agarose gel with NaOH-EDTA buffer at 4° C. The electrophoresis was carried out at 18 V for 22 h. After staining the gels with an ethidium bromide solution, the DNA was then visualized under UV light.

[5] = tested on: MX-1 human mammary xenograft; assay: Therapeutic efficacy in nude mice bearing MX-1 xenograft; format: in vivo; conditions: for complete tumor remission (CR): FIG. 6, i.v. inj., n=4
Procedure: Athymic nude mice bearing the nu/nu gene were obtained from NCI, Frederick, Md. and used for all human tumor xenografts. Male nude mice, 6 weeks or older, weighing 20-24 g or more were used. Compounds were administered via the tail vein for i.v. injection or infusion as described previously.^26 A typical formulation for chemotherapeutic studies for each drug was dissolved in DSMO to make a 25 mg/ml fresh solution, 0.4 ml of this solution was mixed with 0.3 ml of Tween 80, plus 1.3 ml to make 2 ml of 5 mg/ml solution. Bolus injection volume was 0.1-0.2 ml per mouse. Tumor volume was assessed by measuring length×width×height (or width) by using a caliper. For tumor-bearing nude mice during the course of the experiment, the body weight refers to total weight minus the weight of the tumor. All animal studies were conducted in accordance with the guidelines for the National Institute of Health Guide for the Care and Use of Animals and the protocol approved by the Institutional Animal Care and Use Committee.

[6] = Table 5, 72 h incubation, read-out: Cell Growth inhibition (IC50 μM) CCRF-CEM

Row | SMILES | fold of cross-resistant vs IC50 of the parent cell line, CCRF-CEM/Taxol (CCRF-CEM/Taxol) | fold of cross-resistant vs IC50 of the parent cell line, CCRF-CEM/VBL (CCRF-CEM/VBL) | DNA interstrand cross-linking (linearized pBR322DNA) | IC50 [3, 6] | IC50 (CCRF-CEM/Taxol) | IC50 (CCRF-CEM/VBL) | IC50 (breast carcinoma MX-1) | IC50 (colon carcinoma HCT-116; Table 6, 72 h) | IC50 ([4]; Table 6, 72 h) | IC50 (prostate cancer PC3; Table 6, 72 h) | IC50 (oral cancer OECM-1; Table 6, 72 h) | IC50 (glioma U87; Table 6, 72 h) | other results
1 | CNC(=O)OCc1c(COC(=O)NC)c(-c2ccc(OC)cc2)n2c1Cc1ccccc1-2 [BO-1012] |  |  |  |  |  |  |  |  |  |  |  |  | tumor suppression [1]: more than 82%; tumor suppression [2]: > 92%
2 | OCc1c(CO)c2sc3ccccc3n2c1-c1ccc(Cl)cc1 [Compound 18c, (1-(4-Chlorophenyl)benzo[d]pyrrolo[2,1-b]thiazole-2,3-diyl)dimethanol] | 2.00 × | 1.56 × | able to bind covalently (interstrand cross-linking) with DNA |  |  |  |  |  |  |  |  |  | IC50 ([3]; Homo sapiens, CCRF-CEM, Table 5, 72 h incubation, read-out: Cell Growth inhibition (IC50 μM) CCRF-CEM): 2.61 ± 0.03 µM; IC50 (CCRF-CEM/Taxol; Homo sapiens, CCRF-CEM): 5.22 ± 0.026 µM; IC50 (CCRF-CEM/VBL; Homo sapiens, CCRF-CEM): 4.09 ± 0.025 µM; IC50 (breast carcinoma MX-1; Homo sapiens): 10.4 ± 0.003 µM; IC50 (colon carcinoma HCT-116; Homo sapiens, HCT-116, Table 6, 72 h): 9.26 ± 0.049 µM; IC50 ([4]; Homo sapiens, NCI-H1299, Table 6, 72 h): 12.4 ± 0.44 µM; IC50 (prostate cancer PC3; Homo sapiens, Table 6, 72 h): 20.4 ± 3.43 µM; IC50 (oral cancer OECM-1; Homo sapiens, OECM1, Table 6, 72 h): 14.6 ± 1.13 µM; IC50 (glioma U87; Homo sapiens, Table 6, 72 h): 20.7 ± 2.26 µM
3 | CCNC(=O)OCc1c(COC(=O)NCC)c2sc3ccccc3n2c1-c1ccc(Cl)cc1 [Compound 19c, (1-(4-Chlorophenyl)benzo[d]pyrrolo[2,1-b]thiazole-2,3-diyl)bis(methylene)bis(ethylcarbamate)] | 1.52 × | 1.85 × | able to bind covalently (interstrand cross-linking) with DNA | 0.21 ± 0.01 µM | 0.32 ± 0.003 µM | 0.39 ± 0.012 µM | 0.91 ± 0.01 µM | 0.7 ± 0.008 µM | 4.33 ± 0.45 µM | 13.8 ± 3.78 µM | 11.6 ± 2.84 µM | 26 ± 2.27 µM | 
4 | CC(C)NC(=O)OCc1c(-c2ccc(F)cc2)c2sc3ccccc3n2c1COC(=O)NC(C)C [Compound 20b, (1-(4-Fluorophenyl)benzo[d]pyrrolo[2,1-b]thiazole-2,3-diyl)bis(methylene)bis(iso-propylcarbamate)] | 3.20 × | 3.80 × |  | 0.05 ± 0.001 µM | 0.16 ± 0.007 µM | 0.19 ± 0.003 µM | 0.62 ± 0.014 µM | 0.35 ± 0.01 µM | 33 ± 3.2 µM | 24.2 ± 4.17 µM | 11.9 ± 2.9 µM | 53.5 ± 9.97 µM | complete tumor remission (CR), mice ([5]; 20 mg/kg, Q2Dx3 and then 25 mg/kg, Q2D×4, iv. inj., on D26 and 28): two out of three
5 | CC(C)NC(=O)OCc1c(COC(=O)NC(C)C)c2sc3ccccc3n2c1-c1ccc(Cl)cc1 [Compound 20c, (1-(4-Chlorophenyl)benzo[d]pyrrolo[2,1-b]thiazole-2,3-diyl)bis(methylene)bis(iso-propylcarbamate)] | 4.87 × | 5.25 × | able to bind covalently (interstrand cross-linking) with DNA | 0.08 ± 0.0003 µM | 0.39 ± 0.004 µM | 0.42 ± 0.001 µM | 1.19 ± 0.004 µM | 1.7 ± 0.006 µM | 8.75 ± 0.88 µM | 13.7 ± 1.28 µM | 7.54 ± 0.95 µM | 29 ± 4.49 µM | complete tumor remission, mice ([5]; 20 mg/kg, Q2Dx3 and then 25 mg/kg, Q2Dx5, on D24, 26, and 26, FIG. 5A): all three
6 | COc1ccc(-c2c(COC(=O)NC(C)C)c(COC(=O)NC(C)C)c3sc4ccccc4n23)cc1 [Compound 20g, (1-(4-Methoxyphenyl)benzo[d]pyrrolo[2,1-b]thiazole-2,3-diyl)bis(methylene)bis(iso-propylcarbamate)] | 1.17 × | 1.47 × | able to bind covalently (interstrand cross-linking) with DNA | 0.14 ± 0.002 µM | 0.17 ± 0.004 µM | 0.25 ± 0.008 µM |  |  | 8.19 ± 1.74 µM | 17.5 ± 0.8 µM | 7.23 ± 1.57 µM | 60.9 ± 13.4 µM | 
7 | CC(C)NC(=O)OCc1c(COC(=O)NC(C)C)c2n(c1-c1ccc(F)cc1)CC(C)c1c-2[nH]c2ccccc12 (stereo not drawn) [Compound 28c, [3-(4-Fluorophenyl)-6-methyl-6,11-dihydro-5H-indolizino[6,7-b]indole-1,2-diyl]bis(methylene) (isopropylcarbamate)] |  |  |  |  |  |  |  |  |  |  |  |  | IC50 ([3]; Table 7, 72 h, read-out: IC50 (μM) CCRF/CEM): 0.106 ± 0.004 µM; IC50 ([4]; Table 7, 72 h): 16.9 ± 2.69 µM; IC50 (oral cancer OECM-1; Table 7, 72 h, read-out: IC50 (μM) OECM1): 6.56 ± 1.15 µM; complete tumor remission (CR) [5]: CR was achieved
8 | CCn1c2c(c3ccccc31)Cc1c(CO)c(CO)c(C)n1C2 [Compound 33b, [6-Ethyl-3-methyl-6,11-dihydro-5H-indolizino[6,7-b]indole-1,2-diyl]dimethanol] |  |  |  |  |  |  |  |  |  |  |  |  | IC50 ([3]; Homo sapiens, CCRF-CEM, Table 7, 72 h, read-out: IC50 (μM) CCRF/CEM): 0.1 ± 0.002 µM; IC50 ([4]; Homo sapiens, NCI-H1299, Table 7, 72 h): 2.97 ± 0.55 µM; IC50 (prostate cancer PC3; Homo sapiens, Table 7, 72 h): 2.66 ± 0.47 µM; IC50 (oral cancer OECM-1; Homo sapiens, OECM1, Table 7, 72 h): 1.17 ± 0.89 µM; IC50 (glioma U87; Homo sapiens, Table 7, 72 h): 6.26 ± 1.43 µM; complete tumor remission (CR) [5]: CR was achieved; melting point: 216 to 217 °C

— US8703951B2, “Synthesis of 4H-benzo[D]pyrrolo[1,2-A]thiazoles and indolizino[6,7-b]indole derivatives and their use as antitumor therapeutic agents” (Academia Sinica, priority 2011, dated 2014)
